US9999609B2, “Methods for treating or preventing fatigue” (SK Biopharmaceuticals Co., Ltd., priority 2009, dated 2018)

Legend:
Assay type in all cases: in vivo
[1] = system: adult human subjects with moderate or severe major depression without psychotic features; experiment: Randomized double-blind placebo- and active-controlled 6-week study in major depression; conditions: for ABCD questionnaire items (of 51) with statistically significant superiority to placebo: post hoc analyses
Description: This was a randomized, double-blind, parallel-group, active, and placebo-controlled, multicenter study conducted in the U.S. (23 centers) and Canada (4 centers). There were 2 phases: a pretreatment phase (screening/washout and a baseline visit) and a 6-week, double-blind treatment phase. Paroxetine, a positive control, was included to evaluate assay sensitivity. After washout (if needed) of prohibited substances, subjects were randomly assigned (1:1:1:1) to receive the test compound titrated to a target dose of 200 mg/day or 400 mg/day, matching placebo, or a fixed dose (20 mg/day) of paroxetine. Study drug was given twice daily for 6 weeks. Efficacy and safety were assessed weekly during the double-blind phase. Subjects completing the study underwent an Exit Interview (“Your Health and Well-Being”) and completed an Assessment of Benefits of Clinical-trial Drug-treatment (ABCD) questionnaire (U.S. sites only).

[2] = system: C57BL/6J, AKR/J and DBA/2J mice; experiment: Sleep onset and vigilance states in three inbred mouse strains after IP injection
Method: At least 7 adult male mice of inbred strains C57BL/6J, AKR/J, and DBA/2J were recorded in 2 sessions of 72 continuous hours. The first 24 h in each session are considered as baseline followed the next day by the saline injection and the next day by 150 mg/kg of the test compound in the first session and 5 mg/kg d-amphetamine in the second session. The two sessions were separated by 7 days (wash-out period) and all injections were intraperitoneal (IP) and performed at light onset (9 am) in a volume of 5 ml/kg.

[3] = system: hypocretin cell ablated narcoleptic mice (prepororexin/ataxin-3 transgenic) and their littermate wild-type mice; experiment: Sleep parameters (EEG/EMG polygraph) in narcoleptic and wild-type mice after oral dosing; conditions: for duration of continuous wakefulness: resting period (ZT 2), most wild-type and narcoleptic mice
Description: The polygraph signal (EEG and EMG) was captured with SleepSign (Kissei Comtech), and the sleep stage was visually scored with 10 sec epoch for wakefulness, non-REM sleep and REM sleep. Scoring criteria are: Wakefulness is characterized by desynchronized low-amplitude, mixed frequency (>4 Hz) EEG and high EMG activity. Rhythmic alpha (8-9 Hz) wave (with high EMG activities) may also appear. Non-REM is characterized by synchronized, high-amplitude, low-frequency (0.25-4 Hz) with reduced EMG activity (compared to wakefulness). EEG activity in REM sleep is similar to that in wakefulness, with desynchronized, mixed frequency low amplitude waves. Rhythmic alpha (8-9 Hz) wave with reduced EMG activities may also appear. […] is reduced even further and in many cases, completely absent. Same muscle twitching may be apparent in the EMG trace during REM sleep.
Three drug doses of the test compound (50, 100 and 150 mg/kg PO) plus vehicle, were orally administered at ZT 2 (2 hours after light on) or ZT14 (2 hours after light off), and the effects on sleep were monitored for 6 hours after the drug administration (the sleep data was collected for 30 hours after the drug injection, and are available for further analysis). The doses for modafinil were 50 and 200 mg/kg PO (plus vehicle), and modafinil was also administered at ZT 2 and […]
If the polygraph signals of some mice were not sufficient to score the sleep stage with accuracy (especially bad EMG), data from these animals were excluded, and the minimum of 5 animals (except for the highest dose of the test compound in wild-type mice in dark period, n=4) were included for the data analysis and number of animals were indicated in the figures.
Effects of test compound and modafinil on the amount of wake, non-REM sleep, REM sleep (cumulative seconds), number of episodes for each sleep stage during 6 hours, and mean wake/sleep-bout lengths (seconds) were analyzed in each animal and the mean of each parameter was calculated in each genotype. The effects of compounds on wake and sleep amounts are useful to evaluate the wake promoting potency, and the number of episodes for each sloop stage and the mean wake/sleep bout length are parameters for evaluating the sleep fragmentation. Amphetamine and modafinil, two main wake-promoting compounds currently used for the treatment of EDS associated with various etiologies (narcolepsy, idiopathic hypersomnia and secondary EDS), are known to increase wake time and prolong wake bout length in normal and EDS conditions.
A comparison of the effects between hypocretin deficient and wild-type mice is very useful in determining the wake-promotion of the test compound is dependent on the availability of hypocretins, and if there is a possible change in the sensitivity of the receptive mechanisms of test compound in narcoleptic mice due to the hypocretin ligand deficiency.

[4] = system: male adult Sprague Dawley rats; experiment: Sleep-wake organization (EEG/EOG/EMG) in rats after acute i.p. administration; conditions: for Duration Active wake / Duration Deep sleep / Duration Intemediate stage / Duration Light sleep / Duration Passive wake / Duration REM sleep / Latency ISWS / Latency REM sleep / Latency dSWS / Shifts: Shift from ISWS to AW / Shifts: Shift from ISWS to PW / Shifts: Shift from REMS to AW / Shifts: Shift from REMS to PW / Shifts: Shift from dSWS to AW / Shifts: Shift from dSWS to PW: rats, mean ± s.e.m of 8 rats; for Duration Active wake / Duration Deep sleep / Duration Intemediate stage / Duration Light sleep / Duration Passive wake / Duration REM sleep: 16 h recording
[5] = 3 mg/kg i.p., 16 hours recording
[6] = 30 mg/kg i.p., 16-h post-injection

For NC(=O)OC[C@H](N)Cc1ccccc1 [test compound, (R)-(beta-amino-benzenepropyl) carbamate], the “ABCD questionnaire items (of 51) with statistically significant superiority to placebo” value ([1]; 200 mg) was 14 items, the “ABCD questionnaire items (of 51) with statistically significant superiority to placebo” value ([1]; 400 mg) was 8 items and the “secondary efficacy variables of mood and well-being” value ([1]; one or both doses (200 and 400 mg/day), 6 weeks) was “statistically significantly greater efficacy than placebo”. The “Insomnia, treatment-emergent adverse event incidence” value ([1]; target dose 200 mg/day, 6 weeks) was 24%, the “Insomnia, treatment-emergent adverse event incidence” value ([1]; target dose 400 mg/day, 6 weeks) was 35% and the “genotype effect on wake time referenced to sleep latency after saline” value ([2]; 150 mg/kg IP) was “no genotype effect”. The “duration of induced continuous wakefulness (sleep latency)” value ([2]; 150 mg/kg IP at light onset, three inbred strains) was “up to 4.5 hours”, the “wakefulness duration compared with d-amphetamine 5 mg/kg” value ([2]; 150 mg/kg IP, hourly wakefulness over 72 h recordings) was “significantly longer wakefulness duration than amphetamine” and the “duration of continuous wakefulness” value ([3]; 50 mg/kg PO) was “up to 3 hours”. For the same compound, the “duration of continuous wakefulness” value ([3]; 100 mg/kg PO) was ≤ 4 h, the “duration of continuous wakefulness” value ([3]; 150 mg/kg PO) was ≤ 5 h and the bouts of wakefulness ([3]; 50-150 mg/kg PO, wild-type and narcoleptic mice) was “significantly increased bouts of wakefulness”. The effect on wakefulness ([3]; active (dark) period, ZT14, PO) was “dose-dependently increased wakefulness”, the “wake amounts in narcoleptic mice relative to wild-type mice” value ([3]; active period, 100 and 150 mg/kg PO) was “brought up to the levels of wild-type mice” and the “amounts of non-REM and REM sleep in narcoleptic mice relative to wild-type mice” value ([3]; active period, PO) was “brought down to the levels of wild-type mice”. For the same compound, the “Non-REM and REM sleep during the period of continuous wakefulness” value ([3]; resting period, 50, 100, 150 mg/kg PO) was “completely suppressed”, the “EEG patterns after administration” value ([3]; resting period, 50-150 mg/kg PO) was “no abnormal EEG patterns” and the “effect on REM sleep” value ([3]; resting period, PO) was “potently reduced REM sleep”. For the same compound, the wake-promoting effects ([3]; resting period, wild-type and hypocretin-deficient narcoleptic mice, PO) was “Very potent wake-promoting effects”, the “increase in total light sleep vs vehicle” value [4, 5] was “+26%” and the “increased drive to wakefulness from deep sleep vs vehicle” value [4, 5] was “+15%”. For the same compound, the “increased drive to wakefulness from light sleep vs vehicle” value [4, 5] was “+46%”, the “increase in shifts from REM sleep towards active wakefulness vs vehicle” value ([4]; 10 mg/kg i.p.) was “+16%” and the “increase in total duration of light sleep vs vehicle” value ([4]; 10 mg/kg i.p.) was “+24%”. The “change in number of epochs of REM sleep” value ([4]; 30 mg/kg i.p.) was −24%, the “change in number of epochs of active wakefulness” value ([4]; 30 mg/kg i.p.) was “+19%” and the “change in number of epochs of light sleep” value ([4]; 30 mg/kg i.p.) was −23%. For the same compound, the “change in number of epochs of passive wakefulness” value ([4]; 30 mg/kg i.p.) was −30%, the “mean durations of sleep wake states” value ([4]; 30 mg/kg i.p.) was “not modified” and the “onset of activity after administration” value ([4]; 30 mg/kg i.p.) was ~30 min. The “change of total time spent in REM sleep vs vehicle” value [4, 6] was −25%, the “change of total time spent in active wakefulness vs vehicle” value [4, 6] was “+19%” and the “change of total time spent in light sleep vs vehicle” value [4, 6] was −20%. The “change of total time spent in passive wakefulness vs vehicle” value [4, 6] was −29%, the “overall profile of effects” value ([4]; 30 mg/kg i.p., beginning of the administration) was “psychostimulant-like properties” and the “duration of rebound increase in deep sleep” value ([4]; 30 mg/kg i.p., starting 3 hours after administration) was “about 7 hours”. For the same compound, the “duration of central activity after injection” value ([4]; i.p.) was “at least 4 hours”, the “time of peak in effect post administration” value ([4]; i.p.) was “around 2 hours” and the “Duration Active wake” value ([4]; 3 mg/kg i.p.) was 290.0 ± 11.2 min. The “Duration Deep sleep” value ([4]; 3 mg/kg i.p.) was 125.0 ± 24.6 min, the “Duration Intemediate stage” value ([4]; 3 mg/kg i.p.) was 2.9 ± 0.7 min and the “Duration Light sleep” value ([4]; 3 mg/kg i.p.) was 374.7 ± 16.6 min. The “Duration Passive wake” value ([4]; 3 mg/kg i.p.) was 79.5 ± 10.7 min, the “Duration REM sleep” value ([4]; 3 mg/kg i.p.) was 84.0 ± 5.4 min and the “Latency ISWS” value ([4]; 3 mg/kg i.p.) was 15.6 ± 4.1 min. The “Latency REM sleep” value ([4]; 3 mg/kg i.p.) was 66.0 ± 11.8 min, the “Latency dSWS” value ([4]; 3 mg/kg i.p.) was 42.0 ± 8.5 min and the “Shifts: Shift from ISWS to AW” value ([4]; 3 mg/kg i.p.) was 217.8 ± 55.5 number. The “Shifts: Shift from ISWS to PW” value ([4]; 3 mg/kg i.p.) was 78.1 ± 35.8 number, the “Shifts: Shift from REMS to AW” value ([4]; 3 mg/kg i.p.) was 78.0 ± 21.6 number and the “Shifts: Shift from REMS to PW” value ([4]; 3 mg/kg i.p.) was 3.7 ± 3.0 number. The “Shifts: Shift from dSWS to AW” value ([4]; 3 mg/kg i.p.) was 9.7 ± 6.6 number, the “Shifts: Shift from dSWS to PW” value ([4]; 3 mg/kg i.p.) was 6.6 ± 5.9 number and the “Duration Active wake” value ([4]; 10 mg/kg i.p.) was 305.5 ± 15.1 min. For the same compound, the “Duration Deep sleep” value ([4]; 10 mg/kg i.p.) was 104.0 ± 19.3 min, the “Duration Intemediate stage” value ([4]; 10 mg/kg i.p.) was 5.2 ± 0.7 min and the “Duration Light sleep” value ([4]; 10 mg/kg i.p.) was 366.6 ± 21.2 min. For the same compound, the “Duration Passive wake” value ([4]; 10 mg/kg i.p.) was 73.1 ± 13.2 min, the “Duration REM sleep” value ([4]; 10 mg/kg i.p.) was 102.3 ± 4.6 min and the “Latency ISWS” value ([4]; 10 mg/kg i.p.) was 30.4 ± 7.9 min. For the same compound, the “Latency REM sleep” value ([4]; 10 mg/kg i.p.) was 87.5 ± 14.5 min, the “Latency dSWS” value ([4]; 10 mg/kg i.p.) was 127.2 ± 67.1 min and the “Shifts: Shift from ISWS to AW” value ([4]; 10 mg/kg i.p.) was 204.5 ± 56.4 number. The “Shifts: Shift from ISWS to PW” value ([4]; 10 mg/kg i.p.) was 84.4 ± 40.5 number, the “Shifts: Shift from REMS to AW” value ([4]; 10 mg/kg i.p.) was 94.1 ± 24.0 number and the “Shifts: Shift from REMS to PW” value ([4]; 10 mg/kg i.p.) was 8.9 ± 6.7 number. For the same compound, the “Shifts: Shift from dSWS to AW” value ([4]; 10 mg/kg i.p.) was 4.2 ± 3.1 number, the “Shifts: Shift from dSWS to PW” value ([4]; 10 mg/kg i.p.) was 12.5 ± 8.5 number and the “Duration Active wake” value ([4]; 30 mg/kg i.p.) was 371.6 ± 7.7 min. For the same compound, the “Duration Deep sleep” value ([4]; 30 mg/kg i.p.) was 214.9 ± 15.6 min, the “Duration Intemediate stage” value ([4]; 30 mg/kg i.p.) was 4.0 ± 1.0 min and the “Duration Light sleep” value ([4]; 30 mg/kg i.p.) was 235.8 ± 14.3 min. The “Duration Passive wake” value ([4]; 30 mg/kg i.p.) was 57.3 ± 4.7 min, the “Duration REM sleep” value ([4]; 30 mg/kg i.p.) was 72.9 ± 7.3 min and the “Latency ISWS” value ([4]; 30 mg/kg i.p.) was 73.6 ± 25.7 min. For the same compound, the “Latency REM sleep” value ([4]; 30 mg/kg i.p.) was 251.8 ± 32.0 min, the “Latency dSWS” value ([4]; 30 mg/kg i.p.) was 174.6 ± 12.3 min and the “Shifts: Shift from ISWS to AW” value ([4]; 30 mg/kg i.p.) was 221.9 ± 58.3 number. The “Shifts: Shift from ISWS to PW” value ([4]; 30 mg/kg i.p.) was 74.2 ± 29.0 number, the “Shifts: Shift from REMS to AW” value ([4]; 30 mg/kg i.p.) was 65.1 ± 21.8 number and the “Shifts: Shift from REMS to PW” value ([4]; 30 mg/kg i.p.) was 4.1 ± 3.2 number. The “Shifts: Shift from dSWS to AW” value ([4]; 30 mg/kg i.p.) was 8.7 ± 5.3 number and the “Shifts: Shift from dSWS to PW” value ([4]; 30 mg/kg i.p.) was 17.6 ± 12.0 number.
